Reference: patent EP4775571A1, “LPAR1 ANTAGONIST AND USE THEREOF” (Haisco Pharmaceutical Group Co., Ltd., priority 2023, dated 2025)

Tests used:
[1] = Pharmacokinetic test in rats; type: in vivo, SD rats; details: for pharmacokinetic characteristics in rats: conclusion in words; for Vd: read-out: Vdss
Protocol: 3.1. Experimental animals: Male SD rats, about 220 g, 6-8 weeks old, 6 rats/compound, purchased from Chengdu Ddossy Experimental Animals Co., Ltd.
3.2. Experimental design: On the day of the experiment, the SD rats were randomly grouped according to their body weights. The animals were fasted with water available for 12-14 h one day before the administration, and were fed 4 h after the administration. Table 4. Administration information
(§1) Before and after administration, 0.15 mL of blood was taken from the orbit under isoflurane anaesthesia and placed in an EDTAK2 centrifuge tube. The tube was centrifuged at 5000 rpm at 4°C for 10 min, and plasma was collected. Before analysis and detection, all samples were stored at -80°C, and the samples were quantitatively analysed by LC-MS/MS. Table 5. Pharmacokinetic parameters of test compound in plasma of rats

Caco2 permeability test = type: in vitro ADME; details: human, Caco-2 monolayer, 2 hours at 37°C
Protocol: In the experiment, a monolayer of Caco-2 cells was used, and incubated in triplicate in a 96-well Transwell plate. A transport buffer solution (HBSS, 10 mM HEPES, pH 7.4 ± 0.05) containing the compound of the present invention (2 µM) or the control compound digoxin (10 µM), nadolol (2 µM) or metoprolol (2 µM) was added to the administration end hole on the apical side or basal side. A DMSO-containing transport buffer solution was added to the corresponding receiving end hole. After incubation for 2 hours at 37°C ± 1°C, the cell plate was removed, and an appropriate amount of samples was taken from both the apical side and basal side and transferred to a new 96-well plate. Subsequently, acetonitrile containing an internal standard was added to precipitate the protein. The samples were analysed using LC MS/MS, and the concentrations of the compound of the present invention and the control compound were determined. Concentration data were used to calculate apparent permeability coefficients for transport from the apical side to the basal side, and from the basal side to the apical side of the cell monolayer, and thus to calculate the efflux ratio. The integrity of the cell monolayer after 2 hours of incubation was evaluated by leakage of Lucifer Yellow.

LPAR1 = target: T1, LPAR1 (Homo sapiens, UniProt Q92633); experiment: Cell calcium flux assay (antagonist mode, LPA at EC80, FLIPR); type: cell-based; details: CHO-LPA1 cells, calcium flux, grades; read-out: LPAR1 IC50
T1 construct: expressed in transfected cells; host or cells: CHO (CHO-LPA1 cells)
Protocol: • 1) The test compound was diluted to a 400X stock solution with DMSO in a 384-well plate. • 2) 1 µl of compound solution from step 1 was transferred into 39 ul of assay buffer to prepare a 10X working solution in a 384-well plate using a Bravo automated liquid handling platform. • 3) CHO-LPA1 cells were cultured in F12 medium (10% FBS). • 4) When cells reached 80% confluence, the cells were dissociated using 0.25% trypsin-EDTA. • 5) Cell density was determined and the cells were diluted to 4x10e5/ml using F12 (10% FBS). • 6) 30 µl of the cell suspension was dispensed into a 384-well plate (corning 3764#) using a multidrop automated dispenser, resulting in 12,000 cells per well. The plate was incubated at 37°C with 5% CO2 for 18-20 hours. • 7) The medium was replaced with 25 uL of serum-free medium and incubated overnight. • 8) 10 ul of 3.5X loading dye was added to each well of the cell plate. The plate was incubated in the dark at 37°C with 5% CO2 for 0.5-1 hours. • 9) After incubation, 5 µl of the 10X working solution from step 2 was transferred to the cell plate. • 10) The cell plate was incubated in the dark at 25°C for 15 minutes, and then the calcium signals were read. • 11) A 5X agonist (LPA) working solution in 1X HBSS+20 mM HEPES+0.1% BSA was prepared in a 384-well assay plate (greiner 784075#), with at least 20 µl per well. The agonist concentration used in this assay was determined based on the dose-response curve from a prior agonist mode experiment, with the EC80 value serving as the final agonist concentration. • 12) Data were read and saved using FLIPR at room temperature with the specified settings. • 13) The signal values were plotted against compound concentrations, and the curve fitting was performed and the IC50 values were calculated using nonlinear regression analysis in GraphPad Prism software.
IC50 values are represented by grades A, B, C, and D, where A represents 0 < IC50 ≤ 10 nM, B represents 10 nM < IC50 ≤ 50 nM, C represents 50 nM < IC50 ≤ 100 nM, and D represents IC50 > 100 nM. Table 1 Antagonistic activity of the compounds of the present invention against LPAR1

[2] = Pharmacokinetic test in mice; type: in vivo, C57 mice; details: for pharmacokinetic characteristics in mice: conclusion in words; for Vd: read-out: Vdss
Protocol: 2.1 Experimental animals: Male C57 mice, 20-25 g, 6 mice/compound, purchased from Chengdu Ddossy Experimental Animals Co., Ltd.
2.2 Experimental design: On the day of the experiment, the C57 mice were randomly grouped according to their body weights. The animals were fasted with water available for 12-14 h one day before the administration, and were fed 4 h after the administration. Table 2. Administration information
as §1, with “0.06” for “0.15”, “collected. The blood collection time points for the intravenous administration group and oral gavage administration group were: 0 min, 5 min, 15 min, 30 min, 1 h, 2 h, 4 h, 6 h, 8 h, and 24 h.” for “collected.”, “3.” for “5.”, “compounds” for “compound”, “mice” for “rats”

[3] = test system: bleomycin (BLM)-induced idiopathic pulmonary fibrosis (IPF); experiment: Mouse model of bleomycin (BLM)-induced idiopathic pulmonary fibrosis (IPF); type: in vivo, C57BL/6j mice
Text: • 1) Screening and grouping: A total of 48 nine-week-old male C57BL/6j mice (experimental animals) were used in this study. Prior to the start of the experiment, the animals were divided into a sham-operated group (Group 1, 8 mice) and a model group (40 mice) based on their body weights. One week after model establishment, the model group animals were further divided into […] subgroups (Groups 2-6, n = 8 per group) based on their body weights. • 2) Animal model establishment: On day 1 of the experiment, the animals were anesthetised with Zoletil (50 mg/kg) and Xylazine (10 mg/kg). Mice in the model group received an intratracheal (i.t.) injection of bleomycin at a dose of 0.66 mg/kg (1 U/kg) in a volume of 50 µL on day 1. Mice in the sham-operated group (Group 1, […]) received an intratracheal injection of normal saline in a volume of 50 µL. • 3) Mode of administration of test compounds: Starting from day 7 of the experiment, the animals were treated as follows. Group 3: compound 22 was administered by oral gavage at a dose of 1 mg/kg at a volume of 10 mL/kg body weight, twice daily. Group 4: compound 22 was administered by oral gavage at a dose of 3 mg/kg at a volume of 10 mL/kg body weight, twice daily. Group 5: BMS-986278 was administered by oral gavage at a dose of 10 mg/kg at a volume of 10 mL/kg body weight, twice daily. Group 6: nintedanib was administered by oral gavage at a dose of 60 mg/kg at a volume of 10 mL/kg body weight, once daily. Sham-operated group (Group 1) and model group (Group 2): the vehicle was administered by oral gavage at a volume of 10 mL/kg body weight, twice daily. • 4) Test indicators: Lung tissues were collected at the study endpoint for pathological evaluation.

[4] = rat, iv, rats, i.v. (1 mg/kg), plasma
[5] = rat, po, rats, i.g. (3 mg/kg), plasma
[6] = mouse, iv, mice, i.v. (1 mg/kg), plasma
[7] = mouse, po, mice, i.g. (3 mg/kg), plasma
[8] = 1 mg/kg oral gavage twice daily for 14 consecutive days
[9] = 3 mg/kg oral gavage twice daily for 14 consecutive days
[10] = 3 mg/kg oral gavage twice daily for 14 consecutive days, lung tissue at study endpoint

T1 sequence (Q92633 whole entry): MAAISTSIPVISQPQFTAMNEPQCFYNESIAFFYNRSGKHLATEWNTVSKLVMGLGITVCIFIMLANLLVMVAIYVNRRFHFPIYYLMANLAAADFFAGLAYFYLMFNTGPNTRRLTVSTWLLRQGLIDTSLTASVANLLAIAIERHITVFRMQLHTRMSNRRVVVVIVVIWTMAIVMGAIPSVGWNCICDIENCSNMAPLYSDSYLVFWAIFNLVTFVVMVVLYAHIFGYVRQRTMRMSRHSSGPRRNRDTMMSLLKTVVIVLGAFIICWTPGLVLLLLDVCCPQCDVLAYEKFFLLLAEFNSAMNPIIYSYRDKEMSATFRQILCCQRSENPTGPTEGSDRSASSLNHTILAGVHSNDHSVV

SMILES	pharmacokinetic characteristics in rats [1]	AUC(0-t) [1, 4] [ng·h/mL]	clearance [1, 4] [mL/min/kg]	Vd [1, 4] [L/kg]	AUC(0-t) [1, 5] [ng·h/mL]	C0 or Cmax ([1]; rats, i.g. (3 mg/kg), plasma) [ng/mL]	C0 or Cmax ([1]; rats, i.v. (1 mg/kg), plasma) [ng/mL]	IC50 (LPAR1) [nM]	pharmacokinetic characteristics in mice [2]	C0 or Cmax ([2]; mice, i.g. (3 mg/kg), plasma) [ng/mL]	C0 or Cmax ([2]; mice, i.v. (1 mg/kg), plasma) [ng/mL]	AUC(0-t) [2, 6] [ng·h/mL]	clearance [2, 6] [mL/min/kg]	Vd [2, 6] [L/kg]	AUC(0-t) [2, 7] [ng·h/mL]	other results
C=C1CC(OC(=O)NCc2c(-c3ccc(O[C@H]4CCC[C@H](C(=O)O)C4)c(C)n3)nnn2C)C1 [Compound 26]	good pharmacokinetic characteristics	1870 ± 246	8.91 ± 1.2	1.21 ± 0.5	2880 ± 913	1144 ± 145	2745 ± 354	< 10	excellent pharmacokinetic characteristics	659 ± 55	2268 ± 193	1580 ± 50	10.3 ± 0.52	2.83 ± 0.53	2290 ± 102	efflux ratio at 2 h, 2 µM (Caco2 permeability test; pH 7.4): 6.79; Papp A→B at 2 h, 2 µM (Caco2 permeability test; pH 7.4, read-out: Average apparent permeability coefficient A-B): 4.31 ×10⁻⁶ cm/s; Papp B→A at 2 h, 2 µM (Caco2 permeability test; pH 7.4, read-out: Average apparent permeability coefficient B-A): 29.2 ×10⁻⁶ cm/s
Cc1nc(-c2nnn(C)c2CNC(=O)OC2CC(=C(F)F)C2)ccc1O[C@H]1CCC[C@H](C(=O)O)C1 (stereo partly shown) [Compound 22]	good pharmacokinetic characteristics	1790 ± 321	9.45 ± 1.7	1.21 ± 0.17	6710 ± 652	1630 ± 162	2428 ± 221	< 10	excellent pharmacokinetic characteristics	1788 ± 180	1537 ± 290	1570 ± 74	10.4 ± 0.55	2.77 ± 0.16	5610 ± 1410	bioavailability ([1]; rat, plasma, po, rats, i.g. (3 mg/kg)): ≥ 98%; Modified Ashcroft score compared with the vehicle-treated model group [3, 8]: significantly reduced; fibrotic area in lung tissues compared with the vehicle-treated model group [3, 8]: significantly reduced; Modified Ashcroft score compared with the vehicle-treated model group [3, 9]: significantly reduced; fibrotic area in lung tissues compared with the vehicle-treated model group [3, 9]: significantly reduced; Modified Ashcroft score [3, 10]: less than 4; fibrotic area [3, 10]: less than 20%; efficacy relative to BMS-986278 (10 mg/kg) and nintedanib (60 mg/kg) ([3]; dose of 1 mg/kg): comparable to that of BMS-986278 (10 mg/kg) and nintedanib (60 mg/kg); efficacy relative to BMS-986278 and nintedanib ([3]; dose of 3 mg/kg): superior efficacy to both BMS-986278 and nintedanib; bioavailability ([2]; mouse, plasma, po, mice, i.g. (3 mg/kg)): ≥ 98%
